Each structure is given as a SMILES string.

For orientation: melting point means the temperature of the solid-liquid transition. The molecule `CN1CCN(c2ccc(S(=O)(=O)Oc3cccc([N+](=O)[O-])c3)cc2)C1=O` showed a melting point of 167 to 169 °C.

In turn, `COc1ccc(OC(c2ccc(OC)cc2)C(Cl)(Cl)Cl)cc1` (configuration not stated) showed a melting point of 90 °C.

Take `COc1cc(N)c2nc(C)cc(C)c2c1OC`: the melting point lay within 108 to 110 °C.

For the molecule `COc1ccc2nc(Cl)cc(CCNC(C)=O)c2c1`, the melting point fell in the range of 162 to 164 °C.

Take `CC(=O)N1CCN(c2nc(Cl)ccc2[N+](=O)[O-])CC1`: the melting point lay in the range of 137 to 138 °C.

With `O=C(NN=CC(Cl)(Cl)Cl)c1cccc(Oc2cccc(C(F)(F)F)c2)n1`, the melting point was in the range of 81 to 82 °C.

Take `COC(=S)c1nc(Br)nc(C)c1Cl`: the melting point fell in the range of 105 to 106 °C.

Molecule `CC(Cc1ccc(F)cc1)(NC(=O)CN)c1ccc(F)cc1` (configuration not stated) yielded a melting point of 130 to 131 °C.

`c1ccc2ncc(N3CCNCC3)cc2c1` showed a melting point of 87.7 to 88.5 °C.

As for `c1ccc2c3c([nH]c2c1)C(c1ccc2c(c1)OCO2)NCC3` (configuration not stated), the melting point was determined as 173 °C.

The molecule `O=C1c2ccccc2C(=O)N1CC1CCC2CN(c3ccccn3)CCN2C1` (configuration not stated) displayed a melting point of 167 to 168 °C.

On to `O=C1CCC(c2ccccc2)(c2ccccc2)C2CN(C(Cc3ccccc3)=NCc3ccccc3Cl)CC12` (configuration not stated), for which the melting point is 192 °C.

As for `CC(CF)(CF)C(=O)NC(CO)c1ccc(C(C)(C)C)cc1` (configuration not stated), the melting point was 141 °C.

As for `O=C(NCCN1CCOCC1)c1ccc(-c2ccc3nnn(Cc4ccc5ncccc5c4)c3n2)cc1`, the melting point was in the range of 146 to 149 °C.

Regarding `Cc1cc(C(O)(c2cc(C)sc2C)c2cc(C)sc2C)c(C)s1`, the melting point was 110 to 111 °C.

The molecule `CCC(=O)Nc1nnc2c3c(c(N4CCOCC4)nn12)CCCC3` yielded a melting point of 164 to 166 °C.

In turn, `CN(C)CCN(C)c1ccc(Nc2cc(-c3cc(F)cc(N4CCc5c(sc6c5CCCC6)C4=O)c3CO)cn(C)c2=O)nc1` displayed a melting point of 122 to 123 °C.

For the molecule `O=C(OCCc1noc(-c2ccc(CN3CCCCCC3)s2)n1)c1ccccc1`, the melting point lay within 121 to 123 °C.

Consider `COc1ccccc1[C@H](c1cccc2ccccc12)[C@@](C)(C#N)C(=O)N1CCC(C2CCCC(C(F)(F)F)C2)CC1` (some centres not stated), for which the melting point was in the range of 160 to 165 °C.

Take `CCOC(=O)Nc1cc([N+](=O)[O-])cc(CC)c1C(=O)OCC`: the melting point lay in the range of 47 to 48 °C.

Consider `Cc1nc2c3c(c(C(=O)NCCCO)cc2n1C)CCC1(Cc2ccccc2C1)N3`, for which the melting point was 237 to 238 °C.

`CCCCCNC(=NC#N)Nc1cccnc1` showed a melting point of 130 to 132 °C.

Turning to `CCOC(=O)/C=C/C(=O)Nc1ccc2ncnc(Nc3cccc(Br)c3)c2c1`, the melting point is 259 to 263 °C.

Consider `COCCn1cc(C(=O)NCc2ccc(Cl)cc2)c(=O)c2cc(CCl)sc21`, for which the melting point is 192 to 193 °C.

For the molecule `COc1ccc(Cn2c(=O)c3ccc(Cl)cc3n(CCCCBr)c2=O)cc1`, the melting point lay in the range of 107 to 109 °C.

On to `CCCc1nc2c(N)nc3cc(OCCCNC(=O)NS(=O)(=O)c4ccc(F)cc4)ccc3c2n1CC(C)C`, for which the melting point is 194 to 198 °C.

As to `Cc1ccc([PH](=O)c2ccc(C)cc2)cc1`, the melting point is 93.7 °C.

In turn, `Cc1cccc(-c2nc(N)sc2-c2ccc(F)c(-c3ccc(S(C)(=O)=O)cc3)c2)n1` returned a melting point of 202 to 204 °C.

As to `CC(CCc1ccccc1)N(Cc1ccccc1)CC(O)c1ccc(N)c(S(N)(=O)=O)c1` (configuration not stated), the melting point is 133 to 136 °C.

As for `CC(C)CC(=O)Nc1cccc(-c2ccnc3c(-c4cc(Cl)cc(Cl)c4)cnn23)c1`, the melting point lay within 223 to 225 °C.

`c1ccc(COc2ccc(-c3cc4ccccc4[nH]3)cc2)cc1` displayed a melting point of 251 °C.

`CC(C)(Oc1ccc([Si](C)(C)C)cc1)C(=O)O`: the melting point lay in the range of 92 to 93 °C.

Molecule `Cc1cc(N)cc(C)c1Oc1ccc(O)c(C(C)C)c1` had a melting point of 180 to 181 °C.

`Cn1cc(C2=C(c3c4n(c5ccccc35)CC3CN(C(=O)OC(C)(C)C)CC3C4)C(=O)OC2=O)c2ccccc21` (configuration not stated) gave a melting point of 265 to 266 °C.

With `CCCCc1nn(C(F)(F)F)c(C(=O)O)c1Cc1ccc(C2(C(=O)O)CC=CC2)s1`, the melting point lay within 134 to 135 °C.

`COc1ccc(CNc2nc(SC)nc(OC)c2C(=O)O)cc1Cl`: the melting point was 167 to 170 °C.

The molecule `CCCCc1c(C(=O)O)sc2ccc([N+](=O)[O-])cc12` had a melting point of 238 to 240 °C.

For the molecule `Nc1cc(Cl)ccc1C(=O)NCC1CCN(C(c2ccccc2)c2ccccc2)CC1`, the melting point is 161 to 162 °C.

The molecule `CC1(C)c2ccccc2C(C)(C)C1(S)CCO` displayed a melting point of 85 to 87 °C.

Molecule `CCOC(=O)Cc1nc(-c2ccc(Cl)cc2)oc1CC(C)C` displayed a melting point of 56 to 57 °C.

In turn, `COc1ccc(C=C2CCc3cc(OCCn4ccnc4)ccc3C2=O)cc1` registered a melting point of 132 to 133 °C.

Molecule `COc1cc(C(=O)Nc2c(Cl)cc3cn[nH]c3c2C(=O)NC2(C)CSC2)n(-c2ncccc2Cl)n1` registered a melting point of 162 to 165 °C.

`CCC1(C)SC(=NOC(=O)NC)N=C1C` (configuration not stated) returned a melting point of 115 to 117 °C.

`COC(=O)CCc1ccc(-n2cn[nH]c2=O)cc1` showed a melting point of 174 to 176 °C.

In the case of `COC(=O)[C@H]1C[C@H](NS(C)(=O)=O)c2c(Cl)cc(Cl)cc2N1` (relative stereo), the melting point lay within 143 to 146 °C.

`CCNC(=O)N(Cc1ccc(Cl)cc1)C1CC2CCC1C2` (configuration not stated) came in with a melting point of 132 to 133 °C.

Molecule `CCOC(=O)C(C)(Sc1nc2ccc(OCC)cc2s1)c1ccccc1` (configuration not stated) yielded a melting point of 92 to 94 °C.

As for `O=C(NOCC(O)CN1CCCCC1)NC1CCCCC1` (configuration not stated), the melting point fell in the range of 108 to 110 °C.

On to `O=C(O)Cc1c(C(=O)c2ccc(OCc3ccccc3)cc2)[nH]c2cc(Cl)ccc12`, for which the melting point is 220 to 222 °C.

Turning to `CN1C(=O)C(O)(c2ccccc2)c2cccc(Cl)c21` (configuration not stated), the melting point lay in the range of 125 to 127 °C.

`CCN(CC)CCC(=O)O`: the melting point was 65 to 67 °C.

In turn, `CC12CCC3c4ccc(C(=O)O)cc4CCC3C1CCC2C(=O)c1cccs1` (configuration not stated) showed a melting point of 177 to 179 °C.

Consider `O=C1NC(=O)C(Cc2ccc(OCCN3C(=O)c4ccccc4C3=O)cc2)S1` (configuration not stated), for which the melting point fell in the range of 192 to 194 °C.

In turn, `Cc1ccc2c(c1)C1CN(CCCC#N)CCC1N2` (configuration not stated) returned a melting point of 160 to 165 °C.

As to `Cc1ccc(S(=O)(=O)N2[C@@H](C(=N)NO)CC[C@H]2c2ccc(F)cc2)cc1` (racemic), the melting point came out at 217 °C.

Regarding `O=C1O[C@@H]2C[C@@]1(O)C=C(OCc1ccc3sccc3c1)[C@H]2O`, the melting point was 177 to 179 °C.

Take `CC(=O)c1cc2c(s1)Oc1ccccc1N=C2N1CCN(C)CC1`: the melting point was in the range of 143 to 144 °C.

As to `CC(=O)Oc1ccc2c(c1)CCC1C3CCC(=O)C3(C)CC(O)C21O` (configuration not stated), the melting point was in the range of 199 to 201 °C.

In turn, `COc1ccc(Oc2cccc(C(F)(F)F)c2)c(C(=O)O)c1` came in with a melting point of 124 °C.

Regarding `O=C(Nc1cccc(-c2ccnc3c(C(=O)c4cccs4)cnn23)c1)c1cnc[nH]1`, the melting point was in the range of 280 to 282 °C.

`COc1nc(NC(=O)NS(=O)(=O)c2ccsc2C(=O)C2CC2)nc(OC)n1`: the melting point fell in the range of 146 to 148 °C.

For the molecule `C=C(CC1(CC(=C)c2ccc(C(=O)Nc3ccccc3N)cc2)C(=O)N(C)C(=O)N(C)C1=O)c1ccc(C(=O)Nc2ccccc2N)cc1`, the melting point lay within 161 to 163 °C.

For `NCCc1cccc(N2C(=O)N(c3ccccc3Br)Cc3cnc(Nc4ccccc4)nc32)c1`, the melting point was found to be 130 °C.

For `CC1=Nc2ccccc2CC(c2ccc(C)s2)N1C` (configuration not stated), the melting point was in the range of 139 to 140 °C.

The molecule `Cc1ccc(-n2cc(C(=O)O)c(=O)c3ccc(-c4ccncc4)cc32)cc1C` gave a melting point of 301 to 303 °C.

Turning to `O=C(O)CCCc1cccc(OCc2ccccc2)c1`, the melting point fell in the range of 100 to 102 °C.

With `O=C(O)C(=O)c1ccc2c(c1)Cc1ccccc1-2`, the melting point is 135 to 137 °C.

In the case of `Oc1cccc2c1ccn2CCOCCC(c1ccccc1)c1ccccc1`, the melting point fell in the range of 107 to 109 °C.

Turning to `O=C(c1cc(C2CCCCC2)ccn1)N(O)Cc1ccccc1`, the melting point lay within 106 to 110 °C.

Regarding `COC(=O)c1ccc(NC(=O)c2sc3ccc(OC)cc3c2SC(C)C)cc1`, the melting point was 158 °C.

As for `CC(=O)Nc1ccc(C#N)c(F)c1`, the melting point was in the range of 190 to 192 °C.

`CNC(=O)[C@H]1O[C@@H](n2cnc3c(NCc4cc(Cl)ccc4OCC4OC(O)C(O)C(O)C4O)ncnc32)[C@H](O)[C@@H]1N` (some centres not stated) yielded a melting point of 212 to 218 °C.

With `CCOC(=O)COc1ccccc1C(=O)Nc1ccccc1Sc1ccccc1-c1nnn[nH]1`, the melting point lay in the range of 145 to 146 °C.

Turning to `O=C(NC[C@@H](C(=O)NO)N1CCCCC1)c1ccc(OCc2ccnc(Br)c2)cc1`, the melting point came out at 150 °C.

In turn, `CCN(CC)C1=NN(Nc2ccc3nc(C)cc(N)c3c2)NC(Cl)=C1` returned a melting point of 120 °C.

`ClCCOc1ccc([C@H]2c3ccc(OCc4ccccc4)cc3OC[C@H]2c2ccccc2)cc1` (racemic) showed a melting point of 66 to 70.6 °C.

Regarding `CCOP(=O)(/C=C/c1ccc2cc(NC(=O)c3cccnc3)cc(-c3cccc4ccccc34)c2n1)OCC`, the melting point lay within 216 to 217 °C.

As to `N=C(N)NCCCCOc1cccc2c1NC(=O)C(CC(=O)O)C2` (configuration not stated), the melting point was in the range of 207 to 210 °C.

For the molecule `CC(C)C[C@H](CC(N)=O)CC(=O)O`, the melting point is 132 to 135 °C.

`CC(C)NC1=NS(=O)(=O)c2ccc(C(F)(F)F)cc2N1` gave a melting point of 294 to 297 °C.

The molecule `N#Cc1ccc2c(c1)C(=O)NC(C(Cl)(Cl)Cl)O2` (configuration not stated) displayed a melting point of 212 to 214 °C.

In turn, `N#CC1=C(C2CCN(C(=O)c3ccccc3)CC2)Nc2n[nH]cc2C1c1cccc(C#N)c1Br` (configuration not stated) had a melting point of more than 280 °C.

As to `O=C1COc2ccc(C3=Cc4ccc(NCCCO)cc4OC3c3ccccc3)cc2N1` (configuration not stated), the melting point fell in the range of 215 to 217 °C.

Take `CC(=O)NCCCc1nc2cc(C3=NNC(=O)CC3C)ccc2[nH]1` (configuration not stated): the melting point lay in the range of 244 to 246 °C.

Regarding `O=C(O)c1ccc(-c2cc(-c3ccccc3)on2)cc1`, the melting point fell in the range of 297 to 298 °C.

`CC(C)(C)OC(=O)NC1CN(c2c(F)cc3c(=O)c(C(=O)O)cn(C4CC4)c3c2Cl)CC12CC2` (configuration not stated) showed a melting point of 205 to 207 °C.

Molecule `CN(C)CCCCNc1nc2cc(Cl)c(Cl)cc2nc1-c1ccccn1` gave a melting point of 81 to 83 °C.

(Values after a melting point compilation (Tetko et al.; mined from patent text by program, amines drawn as free bases though some values may be those of a salt).)
